The values that follow come from patent US20170210751A1, “PRMT5 INHIBITORS AND USES THEREOF” (Epizyme, Inc., priority 2014, published 2017).

The assay relates to Symmetric di-Methyl Arginine in Z-138 cells. Briefly: Z-138 Methylation Assay (In Cell Western for symmetric di-methyl arginine). Type of assay: cell-based. As to conditions: Homo sapiens, 96 hours incubation, symmetric di-methyl arginine normalised to DNA content, read-out: ICW EC50. An excerpt: Z-138 suspension cells were purchased from ATCC (American Type Culture Collection, Manassas, Va.). RPMI/Glutamax medium, penicillin-streptomycin, heat inactivated fetal bovine serum, and D-PBS were purchased from Life Technologies, Grand Island, N.Y., USA. Odyssey blocking buffer, 800CW goat anti-rabbit IgG (H+L) antibody, and Licor Odyssey infrared scanner were purchased from Licor Biosciences, Lincoln, Nebr., USA. Symmetric di-methyl arginine antibody was purchased from EMD Millipore, Billerica, Mass., USA. 16% Paraformaldehyde was purchased from Electron Microscopy Sciences, Hatfield, Pa., USA.
Z-138 suspension cells were maintained in growth medium (RPMI 1640 supplemented with 10% v/v heat inactivated fetal bovine serum and 100 units/mL penicillin-streptomycin) and cultured at 37° C. under 5% CO2.
Cell Treatment, In Cell Western (ICW) for detection of Symmetric di-Methyl Arginine and DNA content.
Z-138 cells were seeded in assay medium at a concentration of 50,000 cells per mL to a 384-well cell culture plate with 50 μL per well. Compound (100 nL) from 384 well source plates was added directly to 384 well cell plate. Plates were incubated at 37° C., 5% CO2 for 96 hours. After four days of incubation, 40 μL of cells from incubated plates were added to poly-D-lysine coated 384 well culture plates (BD Biosciences 356697). Plates were incubated at room temperature for 30 minutes then incubated at 37° C., 5% CO2 for 5 hours. After the incubation, 40 μL per well of 8% paraformaldehyde in PBS (16% paraformaldahyde was diluted to 8% in PBS) was added to each plate and incubated for 30 minutes. Plates were transferred to a Biotek 405 plate washer and washed 5 times with 100 μL per well of wash buffer (IX PBS with 0.1% Triton X-100 (v/v)). Next […] well of Odyssey blocking buffer were added to each plate and incubated 1 hour at room temperature. Blocking buffer was removed and 20 μL per well of primary antibody was added (symmetric di-methyl arginine diluted 1:100 in Odyssey buffer with 0.1% Tween 20 (v/v)) and plates were incubated overnight (16 hours) at 4° C. Plates were washed 5 times with 100 μL per well of wash buffer. Next 20 μL per well of secondary antibody was added (1:200 800CW goat anti-rabbit IgG (H+L) antibody, 1:1000 DRAQ5 (Biostatus limited) in Odyssey buffer with 0.1% Tween 20 (v/v)) and incubated for 1 hour at room temperature. The plates were washed 5 times with 100 μL per well wash buffer then 1 time with 100 μL per well of water. Plates were allowed to dry at room temperature then imaged on the Licor Odyssey machine which measures integrated intensity at 700 nm and 800 nm wavelengths. Both 700 and 800 channels were scanned.
First, the ratio for each well was determined by:
Each plate included fourteen control wells of DMSO only treatment (minimum inhibition) as well as fourteen control wells for maximum inhibition treated with 3 μM of a reference compound (Background wells). The average of the ratio values for each control type was calculated and used to determine the percent inhibition for each test well in the plate. Reference compound was serially diluted three-fold in DMSO for a total of nine test concentrations, beginning at 3 μM. Percent inhibition was determined and IC50 curves were generated using triplicate wells per concentration of compound.
For the compound `O=C(NC[C@H](O)CN1CCc2sccc2C1)c1cc(NC2COC2)ncn1` [Compound 1-1, (S)—N-(3-(6,7-dihydrothieno[3,2-c]pyridin-5(4H)-yl)-2-hydroxypropyl)-6-(oxetan-3-ylamino)pyrimidine-4-carboxamide], the EC50 (as a rule, the concentration at which the effect is half-maximal) is less than 100 nM.

In the case of `CC(=O)N1CC(Nc2cc(C(=O)NC[C@H](O)CN3CCc4sccc4C3)ncn2)C1` [Compound 1-2, (S)-6-((1-acetylazetidin-3-yl)amino)-N-(3-(6,7-dihydrothieno[3,2-c]pyridin-5(4H)-yl)-2-hydroxypropyl)pyrimidine-4-carboxamide], the EC50 was less than 100 nM. On to `CC(=O)N1CCC(Nc2cc(C(=O)NC[C@H](O)CN3CCc4sccc4C3)ncn2)CC1` [Compound 1-3, (S)-6-((1-acetylpiperidin-4-yl)amino)-N-(3-(6,7-dihydrothieno[3,2-c]pyridin-5(4H)-yl)-2-hydroxypropyl)pyrimidine-4-carboxamide], for which the EC50 was less than 100 nM. Then `O=C(COc1cccc2cccnc12)NCC(O)CN1CCc2sccc2C1` (stereo not drawn) [Compound 1-4, N-(2-hydroxy-3-{4H,5H,6H,7H-thieno[3,2-c]pyridin-5-yl}propyl)-2-(quinolin-8-yloxy)acetamide], with less than 100 nM. With `CC(=O)N1CCC(Nc2cc(C(=O)NC[C@H](O)CN3CCc4nc(C)sc4C3)ncn2)CC1` [Compound 1-7, (S)-6-((1-acetylpiperidin-4-yl)amino)-N-(2-hydroxy-3-(2-methyl-6,7-dihydrothiazolo[5,4-c]pyridin-5(4H)-yl)propyl)pyrimidine-4-carboxamide], the EC50 is greater than 1000 nM. Turning to `Cc1nc2c(s1)CN(C[C@@H](O)CNC(=O)c1cc(NC3COC3)ncn1)CC2` [Compound 1-8, (S)—N-(2-hydroxy-3-(2-methyl-6,7-dihydrothiazolo[5,4-c]pyridin-5(4H)-yl)propyl)-6-(oxetan-3-ylamino)pyrimidine-4-carboxamide], the EC50 was greater than 1000 nM. Then `Cc1csc2c1CN(C[C@@H](O)CNC(=O)c1cc(NC3COC3)ncn1)CC2` [Compound 1-11, (S)—N-(2-hydroxy-3-(3-methyl-6,7-dihydrothieno[3,2-c]pyridin-5(4H)-yl)propyl)-6-(oxetan-3-ylamino)pyrimidine-4-carboxamide], with less than 100 nM; and `CC(=O)N1CC(Nc2cc(C(=O)NC[C@H](O)CN3CCc4scc(C)c4C3)ncn2)C1` [Compound 1-12, (S)-6-((1-acetylazetidin-3-yl)amino)-N-(2-hydroxy-3-(3-methyl-6,7-dihydrothieno[3,2-c]pyridin-5(4H)-yl)propyl)pyrimidine-4-carboxamide], with less than 100 nM. Consider `CC(=O)N1CCC(Nc2cc(C(=O)NC[C@H](O)CN3CCc4scc(C)c4C3)ncn2)CC1` [Compound 1-13, (S)-6-((1-acetylpiperidin-4-yl)amino)-N-(2-hydroxy-3-(3-methyl-6,7-dihydrothieno[3,2-c]pyridin-5(4H)-yl)propyl)pyrimidine-4-carboxamide], for which the concentration giving a half-maximal response (EC50) is less than 100 nM.

Turning to `CC(=O)N1CCC(Nc2cc(C(=O)NC[C@H](O)CN3CCc4scc(C)c4C3)ccn2)CC1` [Compound 1-14, (S)-2-((1-acetylpiperidin-4-yl)amino)-N-(2-hydroxy-3-(3-methyl-6,7-dihydrothieno[3,2-c]pyridin-5(4H)-yl)propyl)isonicotinamide], the EC50 is less than 100 nM. Then `O=C(NC[C@H](O)CN1CCc2ncsc2C1)c1cc(NC2COC2)ncn1` [Compound 1-16, (S)—N-(3-(6,7-dihydrothiazolo[5,4-c]pyridin-5(4H)-yl)-2-hydroxypropyl)-6-(oxetan-3-ylamino)pyrimidine-4-carboxamide], with greater than 1000 nM.

Regarding `CC(=O)N1CC(Nc2cc(C(=O)NC[C@H](O)CN3CCc4ncsc4C3)ncn2)C1` [Compound 1-17, (S)-6-((1-acetylazetidin-3-yl)amino)-N-(3-(6,7-dihydrothiazolo[5,4-c]pyridin-5(4H)-yl)-2-hydroxypropyl)pyrimidine-4-carboxamide], the EC50 is greater than 1000 nM.
